In a melting point compilation (Tetko et al.; mined from patent text by program, amines drawn as free bases though some values may be those of a salt) one finds melting point data, which are given here for 90 compounds.

SMILES strings stand for the structures.

The melting point is the temperature, or range, at which the solid turns liquid. Turning to `COC1=C2C(=C(C(C)C)CC1(C)OC)C(=O)N(CSc1nnnn1-c1ccccc1)S2(=O)=O` (stereo not given), the melting point lay in the range of 169 to 171 °C. In turn, `COc1ccccc1NS(=O)(=O)c1ccc(COC2CCCCO2)cc1` (stereo not given) registered a melting point of 67 to 70 °C.

In turn, `N#Cc1ccc2nccn2c1` displayed a melting point of 166 to 167 °C.

In the case of `O=C1CCCc2c1c1ccccc1n2Cc1ccccc1`, the melting point lay in the range of 157 to 158 °C. The value for `Nc1nnn(C2CN3CCC2CC3)n1` (stereo not given) was 132 to 134 °C; that for `COc1c(C)c(C(=O)c2ccc3nc(C)oc(=O)c3c2)n2ccccc12` was 218 °C. `CN(c1ccccc1)c1nc(N(C)c2ccccc2)c2sccc2n1` showed a melting point of 120 to 122 °C. As to `COc1c(C)cnc(CSc2nc3cc(OC(F)(F)F)ccc3[nH]2)c1C`, the melting point lay within 152 to 154 °C. The value for `COc1cc(COc2nn(Cc3ccccc3)cc2C(N)=O)ccc1OCc1nc(-c2ccco2)oc1C` was 160 to 161 °C; that for `CC(C)(C)OC(=O)Nc1cc(CC#N)c(C#Cc2ccccc2)cc1NC(=O)CC(=O)c1cccc(C#N)c1` was 98 °C.

`COc1ccc2onc(CC(N)=NO)c2c1` yielded a melting point of 180 to 183 °C. The value for `Nc1nc(-c2ccccn2)cc2ccccc12` was 152 to 153 °C; that for `COC1OCC[C@@H]1NC(=O)[C@H](CC(C)C)NC(=O)Nc1cccc2ccccc12` (stereo not given in full) was 184 to 185 °C.

The compound `CC1=NC(NC(=O)Nc2cc(C)ccn2)C(=O)N(CC(=O)N2CC3CCC(CC3)C2)c2c(C)cccc21` (stereo not given) registered a melting point of 152 to 154 °C. As for `CC(=O)OCc1cc(C)cc(Oc2nc(Cl)nc(Cl)c2C(C)C)c1`, the melting point was 76 to 77 °C.

Regarding `Cc1csc(C(=O)c2[nH]c3ccc(Cl)cc3c2CC(=O)O)n1`, the melting point lay within 218 to 220 °C. `CN1CCc2c(-c3ccc(S(=O)(=O)N(C)C)cc3)cc3c(c2C1)N(C)C(=O)C3=O` yielded a melting point of 232 to 240 °C. For `O=C(Nc1nc(C2CC2)no1)C1c2ccccc2Oc2ccccc21` the value was 275 °C; for `Cc1cc(C(O)(c2ccc(OC(F)(F)F)cc2)C(F)(F)F)ccc1N` (stereo not given), 127 to 128 °C. The value for `CCOc1cc(C#N)ccc1C(=O)Nc1cc(Cl)c(Cl)cc1N` was 195 to 198 °C. Turning to `Cn1c(=O)c2c(N3CCCCC3)cccc2n2cnc(-c3noc(C4CC4)n3)c12`, the melting point was 185 to 192 °C. `CN(CCF)c1nc2cc(NC(=O)c3c(C(=O)N4CCC4)cnn3C)ccn2n1` registered a melting point of 236 to 237 °C. As to `Cc1nc2c(O)cccn2c(=O)c1Cc1ccccc1`, the melting point was 124 to 125 °C.

As for `Cc1cc(C(=O)CCCCCCCCC(=O)c2cc(C)c(O)c(C(C)(C)C)c2)cc(C(C)(C)C)c1O`, the melting point lay in the range of 165 to 168 °C. For `Cc1cccc2ncc(C(=O)NCC(C)(C)C)c(=O)n12` the value was 191 to 194 °C; for `COC(=O)c1coc2cc(O)ccc12`, 200 to 201 °C. For `O=C(O)c1cc(C(F)(F)F)c(F)c(F)c1F` the value was 82 to 84 °C; for `CCOCc1nc2c(N)nc(C)c(C)c2n1CCNC(=O)C(C)C`, 172 to 174 °C. The value for `Cc1ccc(-c2ccc(S(N)(=O)=O)cc2)n1-c1ccc(F)cc1` was 147 to 148 °C; that for `CCOc1ccccc1Nc1ncc(C(=O)O)c(=O)[nH]1` was 226 to 228 °C. `Cc1[nH]c2ccccc2c1C1=C(Cl)C(=O)C=C(Cl)C1=O` registered a melting point of 158 to 159 °C. The value for `CC(C(=O)NCC1CCC1)(c1ccccc1)c1ccccc1` was 79 °C. The compound `COC(=O)c1cc(C(=O)O)ccc1N` came in with a melting point of 224 °C. For `CCCN(CCC)Cc1coc(-c2ncn3c2CN(C)C(=O)c2sccc2-3)n1` the value was 110 to 111 °C. For `O=C(O)[C@@H]1CC[C@H](n2nc(-c3c(-c4ccccc4)nn4ccccc34)ccc2=O)C(=O)C1` (relative stereo) the value was 186 to 188 °C; for `C=Cc1cncc(-c2cc(NC(=O)Cc3ccc4ccccc4c3)n[nH]2)c1`, 218 to 220 °C.

`Cn1cnc2c3cccnc3n(-c3ccccc3)c(=O)c21`: the melting point is greater than 300 °C. The value for `CC(C)(COc1ccc2ncc(Cl)n2n1)CS(N)(=O)=O` was 197 to 200 °C; that for `COc1ccc(C2=C(OC(C)=O)C(=O)Nc3ccc(Cl)cc3S2)cc1` was 236 to 238 °C. The value for `CC(=O)n1nc(C)c(Oc2cc(Cl)cc(C#N)c2)c1C` was less than 60 °C; that for `COC(=O)C1=C(C)NC(C)=C(C(=O)OC)C1c1cc([N+](=O)[O-])ccc1OC/C=C/CCl` was 206 to 207 °C. For `O=C(O)C1CC(=S)N(c2cc(C(F)(F)F)cc(C(F)(F)F)c2)C1` (stereo not given), the melting point lay within 141 to 142 °C. `O=C(O)CCSCSCC(C(=O)O)c1cccc(OCc2ccc3ccc(Cl)cc3n2)c1` (stereo not given) had a melting point of 142 °C. The value for `Oc1cc(-c2ncc(C(F)(F)F)cc2F)c(F)cc1Cl` was 94 to 96 °C.

As for `CCOC(=O)Nc1ccc2c(c1)c1c(n2Cc2cccc(F)c2)CC[C@@H](NC(=O)C(C)C)C1`, the melting point is 169 to 171 °C. In turn, `Cc1cc(Cn2nc(C(F)(F)F)cc2C(F)(F)F)ccc1NC(=O)c1cccc(I)c1C(=O)NC(C)(C)CS(C)(=O)=O` gave a melting point of 104 to 107 °C. For `O=C(Nc1cccnc1)c1cc2ccnc(Cl)c2[nH]1`, the melting point was greater than 320 °C. The value for `CC(C)(C)COc1ccc(NC(=O)c2cc3ccccc3s2)cc1C#N` was 227 °C. For `Cc1cc(Cl)ccc1-c1c(O)c(C)c(-c2ccccn2)oc1=O` the value was 133 to 135 °C. With `CCCN(CC)c1cc(C)nc(Oc2c(C)cc(C)cc2C)c1C`, the melting point fell in the range of 167 to 169 °C. For `CCCCCCCCCCCCCCCCCCN(C(=O)OC(C)(C)C)c1ccc(CCC(=O)O)cc1` the value was 46 to 48 °C; for `C(=C1\CN2CCC1CC2)/N1c2ccccc2Sc2ccccc21`, 149 to 153 °C; for `CCn1c2ccccc2c2cc([N+](=O)[O-])ccc21`, 118 to 120 °C.

Take `c1ccc2nc(N3CCNCC3)ncc2c1`: the melting point was 64 to 66 °C.

Compound `O=C(NCCn1c2ccccc2c(=O)c2ccccc21)OCc1ccccc1` yielded a melting point of 224 to 226 °C. `COc1ccccc1CNC(=O)c1c(-c2ccc(C)cc2)c2cccnc2c(=O)n1CCCCO` had a melting point of 205 to 206 °C. For `Oc1ccc(C2CCC3(CC2)OCCO3)cc1` the value was 152 to 153 °C; for `Clc1ccc(C2(Cn3cncn3)CC(Cl)CO2)c(Cl)c1` (stereo not given), 97 °C; for `CCOC(=O)c1cc(-c2ccccc2)nc2c(N)cccc12`, 66 to 69 °C. The value for `Cc1cccc(-c2ccccc2)c1NC(=S)NC(=O)c1ccccc1` was 172 to 173 °C. For `COC1CN(c2ccc(N3C[C@H](CO)OC3=O)cc2F)C1` the value was 131 to 132 °C. For the compound `O=C1CCC(N2Cc3cc(CNC(=O)Nc4ccc(F)cc4)ccc3C2=O)C(=O)N1` (stereo not given), the melting point was 262 to 264 °C. Compound `COc1ccc2c(c1)C(=O)c1c-2c(N2CCN(CC3CO3)CC2)nc2ccccc12` (stereo not given) came in with a melting point of 138 to 139 °C.

In the case of `Oc1cc(Br)c2oc(-c3cc(F)c(O)c(F)c3)nc2c1`, the melting point was in the range of 270 to 272 °C.

`CCCOc1ccc(Br)c(C(=O)C=Cc2ccc3c(c2)OCO3)c1` yielded a melting point of 80 to 82 °C. `CCCCN(CC(O)C(Cc1ccccc1)NC(=O)C(CC(N)=O)NC(=O)NCc1ccccc1)C(=O)NC(C)(C)C` (stereo not given) yielded a melting point of 166 to 167 °C. For `CNC1=NS(=O)N=C1NCCS` (stereo not given) the value was 191 to 193 °C; for `CC1(C)OC(C)(C)C(=NO)C1=NO`, 252 °C; for `CCCCc1nc2ccn(Cc3cccc(C(=N)N)c3)c(=O)c2n1Cc1ccc2ccc(C(=N)N)cc2c1`, 190 to 191 °C. For `c1ccc(Sc2ccc(-c3ccccc3)s2)cc1` the value was 72.5 to 74.5 °C; for `CC1=C(C(=O)OCCN(C)Cc2ccccc2)C(c2ccccc2C(F)(F)F)c2c(ccnc2OCC(C)C)N1` (stereo not given), 148 to 150 °C. `O=C(Nc1ccc(-c2nc3ccccc3s2)cc1)C(Cl)Cl` displayed a melting point of 223 to 225 °C. In turn, `Cc1ccc(=Nc2nnc(C(F)(F)F)s2)n(-c2cccc(C(F)(F)F)c2)c1` came in with a melting point of 179 °C.

`Nc1cc2n(n1)CCOC2` had a melting point of 74 to 76 °C.

Regarding `Cc1nc(-c2ccccc2)nc(-c2ccc(O)c(N)c2)c1C(=O)N1CCN(C)CC1`, the melting point fell in the range of 129 to 131 °C.

Turning to `Cc1ccccc1C(=O)Nc1ccc(C(=O)O)cn1`, the melting point lay in the range of 235 to 238 °C. For `CC(C)n1nc(C(Br)C(=O)c2ccccc2)ccc1=O` (stereo not given) the value was 98 to 100 °C; for `O=C(Nc1ccc2nc(CN3CCOCC3)ccc2c1)c1ccc(-c2ccc(Cl)cc2)cc1`, 236 to 238 °C. `Nc1nc2c(s1)CCN(CC=Cc1ccsc1)CC2`: the melting point lay within 128 to 132 °C.

Turning to `CN(Cc1cccc2c1CN(C1CCC(=O)NC1=O)C2=O)C(=O)Nc1cccc(C(F)(F)F)c1` (stereo not given), the melting point is 198 to 200 °C. Regarding `CNC(=O)Nc1cc(C#N)ccn1`, the melting point lay in the range of 203 to 204 °C.

Consider `CC(=O)N(C)c1cc([N+](=O)[O-])cc([N+](=O)[O-])c1`, for which the melting point is 134 to 136 °C. Regarding `CC(C)Oc1ccc(Cc2nn(-c3ccccc3Cl)c(=O)o2)cc1`, the melting point was 54 °C. `Cc1c(F)cccc1N1CC(C(=O)O)CC1=O` (stereo not given) returned a melting point of 155 to 160 °C. As to `CON=C(C(=O)O)c1cnsn1`, the melting point fell in the range of 99 to 100 °C.

In turn, `Cc1c(C)c2c(c(C)c1N)C(c1ccccc1)C(C)(C)O2` (stereo not given) had a melting point of 131 to 132 °C. The value for `COC(=O)C(O)C(=O)C(C)Oc1ccc(Oc2nc3ccc(Cl)cc3s2)cc1` (stereo not given) was 104 to 106 °C.

In turn, `Cc1nc2c(ncn2COCCO)c(=S)[nH]1` registered a melting point of 190 to 193 °C.

`O=C(Nc1ccc(C(=O)SCC2C(=O)OCC2c2ccccc2)cc1)OCc1ccccc1` (stereo not given): the melting point was 160 to 162 °C. For the compound `N#CN=C(Nc1cccnc1)NC1(c2ccccc2)CC=CC1`, the melting point fell in the range of 285 to 288 °C.
